Experimental data taken from patent publication US8952024B2, “Herbicidal pyrimidone derivatives” (E I du Pont de Nemours and Company, priority 2009, dated 2015).

Key:
Assay type in all cases: in vivo
[1] = tested on: velvetleaf (Abutilon theophrasti); assay: Test B pre-/postemergence plant response
Method in brief: (§1)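 Response scores were assigned visually after 13 to 15 days in a greenhouse, comparing treated pots with controls on a 0–100 scale where 100 denotes complete control. Preemergence treatments went onto freshly seeded loam/sand soil; postemergence treatments onto plants 2 to 18 cm tall.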

wild oat (Avena fatua) = assay: Test B pre-/postemergence plant response
Method in brief: as §1

[2] = tested on: lambsquarters (Chenopodium album); assay: Test B pre-/postemergence plant response
Method in brief: as §1

[3] = tested on: blackgrass (Alopecurus myosuroides); assay: Test B pre-/postemergence plant response
Method in brief: as §1

[4] = tested on: bermudagrass (Cynodon dactylon); assay: Test B pre-/postemergence plant response
Method in brief: as §1

[5] = tested on: Surinam grass (Brachiaria decumbens); assay: Test B pre-/postemergence plant response
Method in brief: as §1

corn (Zea mays) = assay: Test B pre-/postemergence plant response
Method in brief: as §1

soybean (Glycine max) = assay: Test B pre-/postemergence plant response
Method in brief: as §1

[6] = tested on: woolly cupgrass (Eriochloa villosa); assay: Test B pre-/postemergence plant response
Method in brief: as §1

[7] = tested on: large crabgrass (Digitaria sanguinalis); assay: Test B pre-/postemergence plant response
Method in brief: as §1

[8] = tested on: yellow nutsedge (Cyperus esculentus); assay: Test B pre-/postemergence plant response
Method in brief: as §1

[9] = tested on: Italian ryegrass (Lolium multiflorum); assay: Test B pre-/postemergence plant response
Method in brief: as §1

[10] = tested on: ragweed (common ragweed, Ambrosia elatior); assay: Test B pre-/postemergence plant response
Method in brief: as §1

[11] = tested on: johnsongrass (Sorghum halepense); assay: Test B pre-/postemergence plant response
Method in brief: as §1

[12] = tested on: canarygrass (Phalaris minor); assay: Test B postemergence plant response
Method in brief: (§2)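 Plants at the 1- to 4-leaf stage (2 to 18 cm tall), grown in pots of peat moss/vermiculite medium with wetting agent and starter nutrients, received postemergence applications of test chemicals. After 13 to 15 days in a greenhouse, injury was rated visually against untreated controls on a 0 (no effect) to 100 (complete control) scale.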

[13] = tested on: windgrass (Apera spica-venti); assay: Test B postemergence plant response
Method in brief: as §2

[14] = tested on: chickweed (Stellaria media); assay: Test B postemergence plant response
Method in brief: as §2

[15] = tested on: winter barley (Hordeum vulgare); assay: Test B postemergence plant response
Method in brief: as §2

[16] = 16 g ai/ha, Postemergence, 0 to 100 scale
[17] = 31 g ai/ha, postemergence, scale 0 to 100, 0 is no effect, 100 is complete control
[18] = 62 g ai/ha, postemergence, 0 is no effect, 100 is complete control, 13 to 15 days
[19] = Postemergence, 125 g ai/ha, visual rating after 13 to 15 days, scale 0 (no effect) to 100 (complete control)
[20] = Preemergence, 31 g ai/ha, scale 0 to 100 (0 no effect, 100 complete control)
[21] = Preemergence, 62 g ai/ha, scale 0 to 100, 0 no effect, 100 complete control
[22] = Preemergence, 125 g ai/ha, scale 0 to 100, 0 no effect, 100 complete control
[23] = Preemergence, 16 g ai/ha, scale 0 to 100, 0 no effect, 100 complete control

With O=C1CCCC(O)=C1C(=O)c1cnc(-c2cccc(Br)c2)n(-c2ccccc2)c1=O [Compound 69] the “Plant response rating, Velvetleaf” value [1, 16] was 75, the “Plant response rating, Velvetleaf” value [1, 17] was 95 and the “Velvetleaf plant response rating (0 to 100 scale)” value [1, 18] was 98. The “Plant response rating, Velvetleaf” value [1, 19] was 98, the “Plant response rating, Velvetleaf” value [1, 20] was 70 and the “Plant response rating, Velvetleaf” value [1, 21] was 70. For the same molecule, the “Plant response rating, Velvetleaf” value [1, 22] was 85, the “Plant response rating, Oat, Wild” value (wild oat (Avena fatua); [16]) was 50 and the “Plant response rating, Oat, Wild” value (wild oat (Avena fatua); [17]) was 60. For the same molecule, the “Oat, Wild plant response rating (0 to 100 scale)” value (wild oat (Avena fatua); [18]) was 80, the “Plant response rating, Oat, Wild” value (wild oat (Avena fatua); [19]) was 85 and the “Plant response rating, Oat, Wild” value (wild oat (Avena fatua); [23]) was 0. The “Plant response rating, Oat, Wild” value (wild oat (Avena fatua); [20]) was 0, the “Plant response rating, Oat, Wild” value (wild oat (Avena fatua); [21]) was 0 and the “Plant response rating, Oat, Wild” value (wild oat (Avena fatua); [22]) was 0. The “Plant response rating, Lambsquarters” value [2, 16] was 100, the “Plant response rating, Lambsquarters” value [2, 17] was 100 and the “Lambsquarters plant response rating (0 to 100 scale)” value [2, 18] was 100. For the same molecule, the “Plant response rating, Lambsquarters” value [2, 19] was 100, the “Plant response rating, Lambsquarters” value [2, 23] was 95 and the “Plant response rating, Lambsquarters” value [2, 20] was 98. The “Plant response rating, Lambsquarters” value [2, 21] was 100, the “Plant response rating, Lambsquarters” value [2, 22] was 100 and the “Plant response rating, Blackgrass” value [3, 16] was 0. For the same molecule, the “Plant response rating, Blackgrass” value [3, 17] was 0, the “Blackgrass plant response rating (0 to 100 scale)” value [3, 18] was 0 and the “Plant response rating, Blackgrass” value [3, 19] was 0. The “Plant response rating, Blackgrass” value [3, 23] was 0, the “Plant response rating, Blackgrass” value [3, 20] was 0 and the “Plant response rating, Blackgrass” value [3, 21] was 0. For the same molecule, the “Plant response rating, Blackgrass” value [3, 22] was 0, the “Plant response rating, Bermudagrass” value [4, 16] was 85 and the “Plant response rating, Bermudagrass” value [4, 17] was 98. The “Bermudagrass plant response rating (0 to 100 scale)” value [4, 18] was 98, the “Plant response rating, Bermudagrass” value [4, 19] was 98 and the “Plant response rating, Bermudagrass” value [4, 23] was 90. For the same molecule, the “Plant response rating, Bermudagrass” value [4, 20] was 98, the “Plant response rating, Bermudagrass” value [4, 21] was 100 and the “Plant response rating, Bermudagrass” value [4, 22] was 100. For the same molecule, the “Plant response rating, Surinam Grass” value [5, 16] was 75, the “Plant response rating, Surinam Grass” value [5, 17] was 85 and the “Surinam Grass plant response rating (0 to 100 scale)” value [5, 18] was 90. For the same molecule, the “Plant response rating, Surinam Grass” value [5, 19] was 100, the “Plant response rating, Surinam Grass” value [5, 20] was 80 and the “Plant response rating, Surinam Grass” value [5, 21] was 100. For the same molecule, the “Plant response rating, Surinam Grass” value [5, 22] was 100, the “Plant response rating, Corn” value (corn (Zea mays); [16]) was 0 and the “Plant response rating, Corn” value (corn (Zea mays); [17]) was 5. The “Corn plant response rating (0 to 100 scale)” value (corn (Zea mays); [18]) was 10, the “Plant response rating, Corn” value (corn (Zea mays); [19]) was 25 and the “Plant response rating, Corn” value (corn (Zea mays); [23]) was 0. The “Plant response rating, Corn” value (corn (Zea mays); [20]) was 0, the “Plant response rating, Corn” value (corn (Zea mays); [21]) was 0 and the “Plant response rating, Corn” value (corn (Zea mays); [22]) was 0. The “Plant response rating, Soybean” value (soybean (Glycine max); [16]) was 45, the “Plant response rating, Soybean” value (soybean (Glycine max); [17]) was 80 and the “Soybean plant response rating (0 to 100 scale)” value (soybean (Glycine max); [18]) was 90. The “Plant response rating, Soybean” value (soybean (Glycine max); [19]) was 98, the “Plant response rating, Cupgrass, Woolly” value [6, 16] was 75 and the “Plant response rating, Cupgrass, Woolly” value [6, 17] was 90. For the same molecule, the “Cupgrass, Woolly plant response rating (0 to 100 scale)” value [6, 18] was 95, the “Plant response rating, Cupgrass, Woolly” value [6, 19] was 95 and the “Plant response rating, Cupgrass, Woolly” value [6, 23] was 0. The “Plant response rating, Cupgrass, Woolly” value [6, 20] was 0, the “Plant response rating, Cupgrass, Woolly” value [6, 21] was 0 and the “Plant response rating, Cupgrass, Woolly” value [6, 22] was 45. For the same molecule, the “Plant response rating, Crabgrass, Large” value [7, 16] was 95, the “Plant response rating, Crabgrass, Large” value [7, 17] was 95 and the “Crabgrass, Large plant response rating (0 to 100 scale)” value [7, 18] was 95. The “Plant response rating, Crabgrass, Large” value [7, 19] was 98, the “Plant response rating, Crabgrass, Large” value [7, 23] was 75 and the “Plant response rating, Crabgrass, Large” value [7, 20] was 98. For the same molecule, the “Plant response rating, Crabgrass, Large” value [7, 21] was 100, the “Plant response rating, Crabgrass, Large” value [7, 22] was 100 and the “Plant response rating, Nutsedge, Yellow” value [8, 16] was 5. The “Plant response rating, Nutsedge, Yellow” value [8, 17] was 5, the “Nutsedge, Yellow plant response rating (0 to 100 scale)” value [8, 18] was 10 and the “Plant response rating, Nutsedge, Yellow” value [8, 19] was 40. The “Plant response rating, Nutsedge, Yellow” value [8, 23] was 0, the “Plant response rating, Nutsedge, Yellow” value [8, 20] was 0 and the “Plant response rating, Nutsedge, Yellow” value [8, 21] was 0. The “Plant response rating, Nutsedge, Yellow” value [8, 22] was 0, the “Plant response rating, Ryegrass, Italian” value [9, 16] was 0 and the “Plant response rating, Ryegrass, Italian” value [9, 17] was 30. For the same molecule, the “Ryegrass, Italian plant response rating (0 to 100 scale)” value [9, 18] was 50, the “Plant response rating, Ryegrass, Italian” value [9, 19] was 50 and the “Plant response rating, Ryegrass, Italian” value [9, 20] was 0. For the same molecule, the “Plant response rating, Ryegrass, Italian” value [9, 21] was 0, the “Plant response rating, Ryegrass, Italian” value [9, 22] was 0 and the “Plant response rating, Ragweed” value [10, 16] was 75. The “Plant response rating, Ragweed” value [10, 17] was 90, the “Ragweed plant response rating (0 to 100 scale)” value [10, 18] was 90 and the “Plant response rating, Ragweed” value [10, 19] was 100. The “Plant response rating, Ragweed” value [10, 20] was 65, the “Plant response rating, Ragweed” value [10, 21] was 65 and the “Plant response rating, Ragweed” value [10, 22] was 65. The “Plant response rating, Johnsongrass” value [11, 16] was 75, the “Plant response rating, Johnsongrass” value [11, 17] was 98 and the “Johnsongrass plant response rating (0 to 100 scale)” value [11, 18] was 100. For the same molecule, the “Plant response rating, Johnsongrass” value [11, 19] was 100, the “Plant response rating, Johnsongrass” value [11, 23] was 0 and the “Plant response rating, Johnsongrass” value [11, 20] was 5. The “Plant response rating, Johnsongrass” value [11, 21] was 45, the “Plant response rating, Johnsongrass” value [11, 22] was 85 and the “Plant response rating, Canarygrass” value [12, 16] was 0. For the same molecule, the “Plant response rating, Canarygrass” value [12, 17] was 0, the “Canarygrass plant response rating (0 to 100 scale)” value [12, 18] was 0 and the “Plant response rating, Canarygrass” value [12, 19] was 25. The “Plant response rating, Windgrass” value [13, 16] was 40, the “Plant response rating, Windgrass” value [13, 17] was 60 and the “Windgrass plant response rating (0 to 100 scale)” value [13, 18] was 60. The “Plant response rating, Windgrass” value [13, 19] was 80, the “Plant response rating, Chickweed” value [14, 16] was 95 and the “Plant response rating, Chickweed” value [14, 17] was 98. For the same molecule, the “Chickweed plant response rating (0 to 100 scale)” value [14, 18] was 98, the “Plant response rating, Chickweed” value [14, 19] was 98 and the “Plant response rating, Barley” value [15, 16] was 0. The “Plant response rating, Barley” value [15, 17] was 5, the “Barley plant response rating (0 to 100 scale)” value [15, 18] was 5 and the “Plant response rating, Barley” value [15, 19] was 15.
